Assay results from patent US11464770B2, “Anticancer pharmaceutical composition” (NATIONAL CANCER CENTER, priority 2016, dated 2022).

Legend:
zebrafish = experiment: Cardiotoxicity experiment using zebrafish (heart rate, lethality); format: in vivo; conditions: 5 uM, n = 10
[1] = Cell based assay, cytotoxicity in RT4 papilloma cells (selectivity); parameters: species or system human; conditions: human; RT4 cells (benign), 72 hours
[2] = system: MBT-2: Mouse bladder transitional cell carcinoma; experiment: Cell based assay, cytotoxicity in MBT-2 cells; conditions: 72 hours
Method: (§1) Commercially available bladder cancer, prostate cancer, lung cancer, breast cancer, blood cancer, pancreatic cancer, colorectal cancer, brain cancer, neuroblastoma, melanoma, liver cancer, cervical carcinoma, ovarian cancer, renal cancer, and papilloma cell lines were each treated with trypsin-EDTA and cultured, followed by being seeded in each well of a 96 well plate. After 24 hours of treatment at constant temperature, the respective cells were treated with the candidate compound so that a final concentration became 0 to 2 μM. The treated cells were additionally cultured for 72 hours, and cell viability was measured by using an ATP detection method (CellTiter-Glo® Luminescent Cell Viability Assay, Promega).

[3] = system: KU-19-19: Bladder carcinoma; experiment: Cell based assay, cytotoxicity in KU19-19 cells; conditions: Homo sapiens, 72 hours
Method: as §1

Row | SMILES | Changes (%) in heart rate (zebrafish; mean) | Lethality (zebrafish) | IC50 at 72 h [1] | IC50 [2] | IC50 [3]
1 | CC(=O)c1c([S+]([O-])Cc2ccccc2)nc2c(Br)ccc(Cl)c2c1O (centres unmarked) [Compound 4] | 88.5% | 1/10 |  |  | 
2 | CC(=O)c1c([S+]([O-])Cc2ccc(-n3cccn3)nc2)[nH]c2c(Br)ccc(Cl)c2c1=O (centres unmarked) [Compound 99, 2-(((6-(1H-pyrazol-1-yl)pyridin-3-yl)methyl)sulfinyl)-3-acetyl-8-bromo-5-chloroquinolin-4(1H)-one] |  |  | > 10 µM | 0.47 µM | 1.12 µM
